From US20060263830A1, “Interfacial biomaterials” (priority 2001, published 2006)
Values belong to the substance of their own block, whether it stands above or below them.

Legend:
[1] = system: human umbilical vein endothelial cells (HUVECs); assay: HUVEC adhesion and spreading on binding-agent-coated polystyrene wells; assay type: cell-based; conditions: 25 mg/mL coating; light microscopy after 1-hour, 2-hour or overnight culture; vs polystyrene-binding peptide lacking cell-binding domain or uncoated
Description: A 25 mg/mL solution was prepared using a binding agent comprising the peptide sequence RGDFLSFVFPASAWGG (SEQ ID NO:72) in a mixture of 90 parts PBS pH 7.4 and 10 parts DMSO. Fifty (50) μl of the binding agent solution was to each of three wells of a 96-well polystyrene microtiter plate for a duration of 1 hour. In another 3 wells, 50 μl of a control peptide 25 mg/ml fluorescein-labeled FLSFVFPASAWGG (SEQ ID NO:1) was added. The wells were washed three times with PBS and non-specific protein binding sites were blocked with sterile-filtered BSA (3% in PBS) for 30 minutes with shaking at 25 rpm. […] Following 4 washes with PBS, human umbilical vein endothelial cells (HUVECs) in supplemented EBM media were seeded onto each well. Cell adhesion and spreading was monitored by light microscopy following a 1-hour, 2-hour, or overnight culture.

[2] = system: adult human dermal fibroblasts (NHDFs); assay: NHDF adhesion to IFBM-coated polystyrene; assay type: cell-based
Description: (§1) First, a 1.0 mg/ml solution of FFPYSHLGVLSSG-PEG (SEQ ID NO:104) was prepared in water. The solution was added to the wells of a 96 well polystyrene culture plate and incubated at 50° C. overnight. The wells were then washed twice with PBS before seeding with 300 μl of either cell type. Human fibroblast and endothelial cells were also seeded on untreated polystyrene (N=3) and peptide (non-pegylated) coated polystyrene (N=3). After overnight incubation at 37° C., the wells were washed 5 times in excess PBS, then fixed in ethanol and stained with eosin Y for cell counting and optical microscopy. Both NHDF and HUVEC cells lose their rounded morphology, spread, and adhere to the untreated control plastic. At higher magnification, marked membrane ruffling is evident.

[3] = system: human umbilical vein endothelial cells (HUVECs); assay: HUVEC adhesion to IFBM-coated polystyrene; assay type: cell-based
Description: as §1

[4] = system: Human chondrocytes; assay: Cell panning of phage library on chondrocytes; assay type: cell-based; conditions: phage-displayed peptide
From the text: The SCX16S library (described in Example 1) was screened for binding to chondrocytes. The peptides of the library were of the format SCX16S, including 16 central random amino acids, terminal fixed serines and a single cysteine residue.
Human chondrocytes were obtained from Clonetics, Inc. (San Diego, Calif., United States of America) and grown to confluency on one well of a polystyrene 6-well plate in supplemented F-12 media (Sigma-Aldrich Corp., St. Louis, Mo., United States of America). The entire cell panning procedure was free of detergent. The library was pre-cleared of phage that specifically or non-specifically bind polystyrene by incubating phage in polystyrene wells for two hours prior to addition to the cellular target. In each round, nonspecific binding sites were blocked using 5% dry milk in PBS. Phage were detected, isolated, amplified, and sequenced as described in Example 2. A representative peptide has the sequence SCSVYDHKIGRDSFYSGCS (SEQ ID NO:101). A representative peptide also has a preference for chondrocytes greater than 10 fold over endothelial cells.

[5] = AFM pull-off force measurements on polystyrene; assay type: binding; conditions: peptide on gold-coated AFM cantilever, PBS buffer, 300 nm/sec
From the text: The adhesion strength and mode of binding are both IFBM and substrate dependent. To characterize and quantify the adhesion forces between IFBMs and synthetic and biological substrates, a state-of-the-art force spectrometer that employs a high precision, piezo driven flexure stage equipped with a capacitive displacement sensor with a position resolution of about 0.5 nm was used. A polystyrene binding peptide from the X6YX6 peptide library was used (a cysteine-terminated peptide containing the polystyrene-binding domain in the forward direction; CGSSLVGLHSYWSSPFF; SEQ ID NO:117). The cysteine-terminated peptides were then linked to a gold-coated atomic force microscope (AFM) cantilever by incubating the cantilever in a solution of the peptide (1 mg/ml). Pull-off force measurements were carried out in PBS buffer solution on a MultiMode AFM (Digital Instruments, now Veeco Instruments, Inc., Woodbury, N.Y., United States of America) by repeatedly engaging a polystyrene surface with the modified cantilever tip at a speed of 300 nm/sec. The mean adhesion force for the peptide was approximately 300 pN.

[6] = Phage panning and ELISA for binding to polyurethane; conditions: phage-displayed peptide, SCX16S library
Description: To detect phage that specifically bound to titanium, conventional ELISAs were performed using an anti-M13 phage antibody conjugated to HRP, followed by the addition of chromogenic agent o-phenylenediamine in 10% hydrogen peroxide. Relative binding strengths of the phage were determined by absorbance measurements at 490 nm using a microtiter plate reader.
The SCX16S library (described in Example 1) was screened for binding to polyurethane. Phage were detected, isolated, amplified, and sequenced as described in Example 2.

[7] = 1.0 mg/ml coating, overnight incubation at 37° C.
[8] = coated vs untreated polystyrene

Substance: FLSFVFPASAWGGSSGRGD [SEQ ID NO:72]
cell adhesion and spreading [1]: increased cell adhesion and cell spreading

Substance: FFPYSHLGVLSSG-PEG (PEG conjugated; Polystyrene-binding peptide 104) [SEQ ID NO:104, multi-functional peptide or interfacial biomaterial (IFBM) with PEG cell-repelling segment]
cell morphology and attachment on treated polystyrene [2, 7]: maintain a round morphology and are not tightly adhered to the surface
cell adhesion (cell counting) [2, 8]: substantially lessened
cell number (cell counting) [2, 8]: dramatically reduced
cell morphology and attachment on treated polystyrene [3, 7]: maintain a round morphology and are not tightly adhered to the surface
cell adhesion (cell counting) [3, 8]: substantially lessened
cell number (cell counting) [3, 8]: dramatically reduced

Substance: SCSVYDHKIGRDSFYSGCS (Chondrocyte-binding peptide 101) [SEQ ID NO:101]
preference for chondrocytes over endothelial cells [4]: greater than 10 fold

Substance: CGSSLVGLHSYWSSPFF (Polystyrene-binding peptide 117) [SEQ ID NO:117]
mean adhesion force [5]: approximately 300 pN

specific binding to polyurethane [6]: specifically binds
Substance: SCYVNGHNSVWVVVFWGVS (Polyurethane-binding peptide 1) [SEQ ID NO:23]
